Key:
[1] = refractive index (Na D-line) (dimensionless); conditions: 298.15 K; 81.5 kPa; Liquid; Standard Abbe refractometry
[2] = 81.5 kPa, Liquid
[3] = xn = mol fraction of the nth substance listed; conditions: 81.5 kPa, Liquid

CC#N [acetonitrile]
Conditions | refractive index
[1] | 1.3417

[2]
Conditions | mass density [kg/m3]
293.15 K | 781.97
303.15 K | 771.15
313.15 K | 760.2
323.15 K | 749.12
333.15 K | 737.87

CC#N [acetonitrile] + C[S+](C)[O-]
[3], x1 = 1
Conditions | mass density [kg/m3]
293.15 K | 781.97
303.15 K | 771.15
313.15 K | 760.2
323.15 K | 749.12
333.15 K | 737.87

CC#N [acetonitrile] + O
mass density [kg/m3], [3]
Conditions | 293.15 K | 303.15 K | 313.15 K | 323.15 K | 333.15 K
x2 = 0 | 781.97 | 771.15 | 760.2 | 749.12 | 737.87
x2 = 0.0417 | 785.6 | 774.79 | 763.85 | 752.77 | 741.52
x2 = 0.0833 | 789.62 | 778.83 | 767.91 | 756.84 | 745.6
x2 = 0.1568 | 797.67 | 786.95 | 776.09 | 765.06 | 753.85
x2 = 0.2095 | 804.01 | 793.33 | 782.6 | 771.62 | 760.47
x2 = 0.3247 | 819.96 | 809.63 | 799.11 | 788.38 | 777.43
x2 = 0.4127 | 834.27 | 824.27 | 814.05 | 803.6 | 792.91
x2 = 0.496 | 849.71 | 840.11 | 830.25 | 820.14 | 809.77
x2 = 0.5704 | 864.78 | 855.57 | 846.08 | 836.32 | 826.29
x2 = 0.6361 | 880.12 | 871.32 | 862.22 | 852.82 | 843.13
x2 = 0.7201 | 902.94 | 894.74 | 886.22 | 877.38 | 868.22
x2 = 0.7961 | 926.99 | 919.47 | 911.61 | 903.39 | 894.84
x2 = 0.8788 | 956.73 | 950.35 | 943.52 | 936.28 | 928.67
x2 = 0.9573 | 984.72 | 980.43 | 975.45 | 969.87 | 963.64

C[S+](C)[O-] [dimethyl sulfoxide]
Conditions | refractive index
[1] | 1.4767

[2]
Conditions | mass density [kg/m3]
293.15 K | 1100.41
303.15 K | 1090.37
313.15 K | 1080.34
323.15 K | 1070.3
333.15 K | 1060.27

C[S+](C)[O-] [dimethyl sulfoxide] + CC#N
mass density [kg/m3], [3]
Conditions | 293.15 K | 303.15 K | 313.15 K | 323.15 K | 333.15 K
x2 = 0 | 1100.41 | 1090.37 | 1080.34 | 1070.3 | 1060.27
x2 = 0.0563 | 1087.32 | 1077.27 | 1067.22 | 1057.17 | 1047.11
x2 = 0.1195 | 1072.32 | 1062.27 | 1052.21 | 1042.11 | 1032.03
x2 = 0.1751 | 1058.54 | 1048.48 | 1038.38 | 1028.38 | 1018.15
x2 = 0.2996 | 1025.83 | 1015.69 | 1005.54 | 995.35 | 985.14
x2 = 0.3723 | 1005.56 | 995.38 | 985.18 | 974.94 | 964.64
x2 = 0.4529 | 981.91 | 971.68 | 961.4 | 951.09 | 940.71
x2 = 0.5273 | 959 | 948.69 | 938.36 | 927.96 | 917.5
x2 = 0.579 | 942.39 | 932.08 | 921.68 | 911.22 | 900.68
x2 = 0.6896 | 904.94 | 894.48 | 883.96 | 873.36 | 862.66
x2 = 0.7579 | 880.41 | 869.88 | 859.27 | 848.57 | 837.77
x2 = 0.8337 | 851.62 | 841 | 830.29 | 819.48 | 808.55
x2 = 0.933 | 811.3 | 800.6 | 789.76 | 778.79 | 767.68

C[S+](C)[O-] [dimethyl sulfoxide] + O
mass density [kg/m3], [3]
Conditions | 293.15 K | 303.15 K | 313.15 K | 323.15 K | 333.15 K
x2 = 0 | 1100.41 | 1090.37 | 1080.34 | 1070.3 | 1060.27
x2 = 0.0568 | 1100.94 | 1090.97 | 1081.01 | 1071.03 | 1061.04
x2 = 0.1605 | 1101.91 | 1092.1 | 1082.26 | 1072.41 | 1062.5
x2 = 0.2252 | 1102.54 | 1092.83 | 1083.1 | 1073.32 | 1063.49
x2 = 0.3187 | 1103.26 | 1093.73 | 1084.18 | 1074.52 | 1064.79
x2 = 0.3953 | 1103.54 | 1094.31 | 1084.89 | 1075.37 | 1065.74
x2 = 0.4582 | 1103.48 | 1094.25 | 1084.95 | 1075.54 | 1066
x2 = 0.5473 | 1102.05 | 1093.11 | 1084.03 | 1074.8 | 1065.41
x2 = 0.6473 | 1097.2 | 1088.67 | 1079.97 | 1071.08 | 1062
x2 = 0.7213 | 1089.55 | 1081.52 | 1073.28 | 1064.82 | 1056.12
x2 = 0.7997 | 1075.48 | 1068.31 | 1060.87 | 1053.13 | 1045.11
x2 = 0.8828 | 1051.12 | 1045.47 | 1039.4 | 1032.81 | 1024.92
x2 = 0.9632 | 1016.98 | 1013.46 | 1009.19 | 1003.92 | 998.73

O [water] + CC#N
[3], x1 = 1
Conditions | mass density [kg/m3]
323.15 K | 988.03
333.15 K | 983.19

O [water] + C[S+](C)[O-]
[3], x1 = 1
Conditions | mass density [kg/m3]
323.15 K | 988.03
333.15 K | 983.19

From the NIST ThermoML archive (doi:10.1021/je700645p)
